Reference: ChEMBL document CHEMBL3045371, “Structure-Activity Relationships of the Azole Fungicide Metconazole and Its Related Azolylmethylcycloalkanols” (1999)
In brackets after ≈: the same amount, converted by molar mass.

What follows are molecules tested on Fusarium fujikuroi (assay: Fungicidal activity against Fusarium fujikuroi assessed as inhibition of mycelial growth incubated for 3 days at 28 degC). Conditions: 72 h.
Assay type: functional

SMILES	EC90
CC1(C)CC[C@@H](Cc2ccc(Cl)cc2)[C@@]1(O)Cn1cncn1	2 µg/mL (≈ 6.25 µM)
CC1(C)CCCC[C@@H](Cc2ccc(Cl)cc2)[C@@]1(O)Cn1cncn1	4 µg/mL (≈ 11.5 µM)
O[C@]1(Cn2cncn2)CCC[C@@H]1Cc1ccc(Cl)cc1 (relative stereo)	2.1 µg/mL (≈ 7.2 µM)
O[C@]1(Cn2cncn2)CCC[C@H]1Cc1ccc(Cl)cc1 (relative stereo)	152 µg/mL (≈ 521 µM)
O[C@]1(Cn2cncn2)CCCC[C@@H]1Cc1ccc(Cl)cc1 (relative stereo)	> 400 µg/mL
O[C@]1(Cn2cncn2)CCCC[C@H]1Cc1ccc(Cl)cc1 (relative stereo)	64.3 µg/mL (≈ 210 µM)
O[C@]1(Cn2cncn2)CCCCC[C@@H]1Cc1ccc(Cl)cc1 (relative stereo)	2.2 µg/mL (≈ 6.88 µM)
O[C@]1(Cn2cncn2)CCCCC[C@H]1Cc1ccc(Cl)cc1 (relative stereo)	> 400 µg/mL
CC1(C)CC[C@H](Cc2ccc(Cl)cc2)[C@@]1(O)Cn1cncn1 (relative stereo)	0.2 µg/mL (≈ 0.625 µM)
CC1(C)CCC[C@H](Cc2ccc(Cl)cc2)[C@@]1(O)Cn1cncn1 (relative stereo)	15 µg/mL (≈ 44.9 µM)
CC1(C)CCC[C@@H](Cc2ccc(Cl)cc2)[C@@]1(O)Cn1cncn1 (relative stereo)	4.4 µg/mL (≈ 13.2 µM)
CC1(C)CCCC[C@H](Cc2ccc(Cl)cc2)[C@@]1(O)Cn1cncn1 (relative stereo)	1.3 µg/mL (≈ 3.74 µM)
